The source made the active and inactive calls. The rule behind the calls is not given here.
What was measured:
CYP1A2 = target: T1, CYP1A2 (Homo sapiens, UniProt P05177); experiment: Inhibition of CYP1A2 in human liver microsomes assessed as reduction in phenacetin O-deethylase activity at 10 uM preincubated for 5 mins followed by addition of NADPH-regenerating system and measured after 15 mins by LC-MS/MS analysis relative to control; type: ADME; conditions: probe phenacetin (O-deethylase activity), time 20 min
T1 sequence (P05177 whole entry): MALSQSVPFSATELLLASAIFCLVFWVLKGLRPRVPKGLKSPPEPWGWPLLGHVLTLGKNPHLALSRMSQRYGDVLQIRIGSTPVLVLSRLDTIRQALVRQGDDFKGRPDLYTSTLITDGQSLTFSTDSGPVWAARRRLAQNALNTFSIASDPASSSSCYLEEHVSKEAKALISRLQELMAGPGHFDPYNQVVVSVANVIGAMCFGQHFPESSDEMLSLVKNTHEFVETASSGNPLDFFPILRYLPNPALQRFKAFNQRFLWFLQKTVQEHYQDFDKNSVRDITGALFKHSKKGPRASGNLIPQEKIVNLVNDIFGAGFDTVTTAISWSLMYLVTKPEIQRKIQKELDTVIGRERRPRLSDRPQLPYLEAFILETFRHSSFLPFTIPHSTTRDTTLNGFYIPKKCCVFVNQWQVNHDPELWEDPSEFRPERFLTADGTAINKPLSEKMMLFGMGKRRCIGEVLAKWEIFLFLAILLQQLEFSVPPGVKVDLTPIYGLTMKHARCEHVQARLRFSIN

CYP2C9 = CYP2C9 (Homo sapiens, UniProt P11712); experiment: Inhibition of CYP2C9 in human liver microsomes assessed as reduction in tolbutamide 4-hydroxylase activity at 10 uM preincubated for 5 mins followed by addition of NADPH-regenerating system and measured after 15 mins by LC-MS/MS analysis relative to control; type: ADME; conditions: probe tolbutamide (4-hydroxylase activity), time 20 min
CYP2C9, sequence (P11712 whole entry): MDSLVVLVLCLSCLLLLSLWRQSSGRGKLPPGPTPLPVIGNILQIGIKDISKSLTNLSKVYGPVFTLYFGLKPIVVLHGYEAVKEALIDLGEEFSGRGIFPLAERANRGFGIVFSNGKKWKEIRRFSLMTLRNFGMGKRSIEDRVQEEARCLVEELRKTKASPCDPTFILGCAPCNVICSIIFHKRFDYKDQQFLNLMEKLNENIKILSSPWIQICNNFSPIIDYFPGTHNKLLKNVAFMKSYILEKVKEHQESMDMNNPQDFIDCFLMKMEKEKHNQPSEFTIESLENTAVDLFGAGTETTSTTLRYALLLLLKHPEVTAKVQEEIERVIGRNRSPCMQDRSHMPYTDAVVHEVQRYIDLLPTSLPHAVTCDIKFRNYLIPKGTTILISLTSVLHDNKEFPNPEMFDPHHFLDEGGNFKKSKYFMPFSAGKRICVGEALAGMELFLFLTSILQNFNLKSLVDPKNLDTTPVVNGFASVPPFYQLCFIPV

CYP2C19 = CYP2C19 (Homo sapiens, UniProt P33261); experiment: Inhibition of CYP2C19 in human liver microsomes assessed as reduction in S-mephenytoin 4-hydroxylase activity at 10 uM preincubated for 5 mins followed by addition of NADPH-regenerating system and measured after 15 mins by LC-MS/MS analysis relative to control; type: ADME; conditions: probe S-mephenytoin (4-hydroxylase activity), time 20 min
CYP2C19, sequence (P33261 whole entry): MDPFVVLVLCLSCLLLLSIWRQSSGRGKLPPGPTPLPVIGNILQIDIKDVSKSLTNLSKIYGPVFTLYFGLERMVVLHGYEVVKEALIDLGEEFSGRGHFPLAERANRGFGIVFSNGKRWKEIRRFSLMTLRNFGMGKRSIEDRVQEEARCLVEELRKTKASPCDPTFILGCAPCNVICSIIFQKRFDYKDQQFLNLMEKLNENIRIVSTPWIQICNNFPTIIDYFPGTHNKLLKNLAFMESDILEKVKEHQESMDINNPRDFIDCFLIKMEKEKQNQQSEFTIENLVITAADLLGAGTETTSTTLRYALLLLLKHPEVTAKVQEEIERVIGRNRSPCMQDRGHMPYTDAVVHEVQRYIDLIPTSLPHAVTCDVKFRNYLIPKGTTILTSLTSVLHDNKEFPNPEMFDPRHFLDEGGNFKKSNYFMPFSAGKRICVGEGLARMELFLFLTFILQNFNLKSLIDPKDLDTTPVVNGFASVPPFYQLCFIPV

CYP2D6 = CYP2D6 (Homo sapiens, UniProt P10635); experiment: Inhibition of CYP2D6 in human liver microsomes assessed as reduction in dextromethorphan O-demethylase activity at 10 uM preincubated for 5 mins followed by addition of NADPH-regenerating system and measured after 15 mins by LC-MS/MS analysis relative to control; type: ADME; conditions: probe dextromethorphan (O-demethylase activity), time 20 min
CYP2D6, sequence (P10635 whole entry): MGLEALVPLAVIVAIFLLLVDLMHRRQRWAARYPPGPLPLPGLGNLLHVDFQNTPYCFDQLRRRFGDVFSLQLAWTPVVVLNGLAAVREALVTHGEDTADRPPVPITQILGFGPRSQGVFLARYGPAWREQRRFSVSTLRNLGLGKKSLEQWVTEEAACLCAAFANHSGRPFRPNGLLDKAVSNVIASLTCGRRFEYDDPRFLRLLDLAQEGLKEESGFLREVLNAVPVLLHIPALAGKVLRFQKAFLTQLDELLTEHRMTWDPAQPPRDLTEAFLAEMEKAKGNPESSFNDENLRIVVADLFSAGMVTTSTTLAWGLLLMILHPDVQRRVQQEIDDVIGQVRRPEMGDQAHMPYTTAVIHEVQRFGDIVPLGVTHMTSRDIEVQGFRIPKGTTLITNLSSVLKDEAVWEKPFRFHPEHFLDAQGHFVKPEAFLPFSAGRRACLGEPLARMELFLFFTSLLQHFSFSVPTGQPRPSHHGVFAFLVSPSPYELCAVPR

CYP3A4 = CYP3A4 (Homo sapiens, UniProt P08684); experiment: Inhibition of CYP3A4 in human liver microsomes assessed as reduction in midazolam 1-hydroxylase activity at 10 uM preincubated for 5 mins followed by addition of NADPH-regenerating system and measured after 15 mins by LC-MS/MS analysis relative to control; type: ADME; conditions: probe midazolam (1-hydroxylase activity), time 20 min
CYP3A4, sequence (P08684 whole entry): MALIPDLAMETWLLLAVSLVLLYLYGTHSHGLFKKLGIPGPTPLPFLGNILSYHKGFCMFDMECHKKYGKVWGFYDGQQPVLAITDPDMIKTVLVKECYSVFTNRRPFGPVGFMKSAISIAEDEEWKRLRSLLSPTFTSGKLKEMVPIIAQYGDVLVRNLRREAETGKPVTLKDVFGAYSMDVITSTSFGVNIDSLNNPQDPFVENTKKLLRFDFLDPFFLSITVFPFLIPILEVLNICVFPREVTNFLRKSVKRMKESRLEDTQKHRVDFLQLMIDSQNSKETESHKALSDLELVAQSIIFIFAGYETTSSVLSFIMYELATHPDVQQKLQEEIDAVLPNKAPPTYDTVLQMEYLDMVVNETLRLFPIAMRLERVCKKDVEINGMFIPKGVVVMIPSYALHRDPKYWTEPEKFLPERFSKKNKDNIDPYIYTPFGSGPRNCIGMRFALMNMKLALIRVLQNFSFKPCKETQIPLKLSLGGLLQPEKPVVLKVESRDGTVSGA

[1] = Metabolic stability in human liver microsome assessed as parent compound remaining at 1 uM incubated for 30 mins in presence of NADPH generating system by LC-MS/MS analysis; type: ADME; conditions: liver microsomes, read-out: Stabilty
[2] = Metabolic stability in rat liver microsome assessed as parent compound remaining at 1 uM incubated for 30 mins in presence of NADPH generating system by LC-MS/MS analysis; type: ADME; conditions: liver microsomes, read-out: Stabilty
[3] = Effective permeability of compound at 10 uM in PBS buffer at pH 7.4 after 5 hrs by LC-MS/MS analysis based PAMPA method; type: ADME; conditions: read-out: Peff
[4] = target: Voltage-gated inwardly rectifying potassium channel KCNH2 (Homo sapiens, UniProt Q12809); experiment: (§1) Inhibition of human ERG measured after 4 hrs by fluorescence polarization assay
Voltage-gated inwardly rectifying potassium channel KCNH2, sequence (Q12809 whole entry): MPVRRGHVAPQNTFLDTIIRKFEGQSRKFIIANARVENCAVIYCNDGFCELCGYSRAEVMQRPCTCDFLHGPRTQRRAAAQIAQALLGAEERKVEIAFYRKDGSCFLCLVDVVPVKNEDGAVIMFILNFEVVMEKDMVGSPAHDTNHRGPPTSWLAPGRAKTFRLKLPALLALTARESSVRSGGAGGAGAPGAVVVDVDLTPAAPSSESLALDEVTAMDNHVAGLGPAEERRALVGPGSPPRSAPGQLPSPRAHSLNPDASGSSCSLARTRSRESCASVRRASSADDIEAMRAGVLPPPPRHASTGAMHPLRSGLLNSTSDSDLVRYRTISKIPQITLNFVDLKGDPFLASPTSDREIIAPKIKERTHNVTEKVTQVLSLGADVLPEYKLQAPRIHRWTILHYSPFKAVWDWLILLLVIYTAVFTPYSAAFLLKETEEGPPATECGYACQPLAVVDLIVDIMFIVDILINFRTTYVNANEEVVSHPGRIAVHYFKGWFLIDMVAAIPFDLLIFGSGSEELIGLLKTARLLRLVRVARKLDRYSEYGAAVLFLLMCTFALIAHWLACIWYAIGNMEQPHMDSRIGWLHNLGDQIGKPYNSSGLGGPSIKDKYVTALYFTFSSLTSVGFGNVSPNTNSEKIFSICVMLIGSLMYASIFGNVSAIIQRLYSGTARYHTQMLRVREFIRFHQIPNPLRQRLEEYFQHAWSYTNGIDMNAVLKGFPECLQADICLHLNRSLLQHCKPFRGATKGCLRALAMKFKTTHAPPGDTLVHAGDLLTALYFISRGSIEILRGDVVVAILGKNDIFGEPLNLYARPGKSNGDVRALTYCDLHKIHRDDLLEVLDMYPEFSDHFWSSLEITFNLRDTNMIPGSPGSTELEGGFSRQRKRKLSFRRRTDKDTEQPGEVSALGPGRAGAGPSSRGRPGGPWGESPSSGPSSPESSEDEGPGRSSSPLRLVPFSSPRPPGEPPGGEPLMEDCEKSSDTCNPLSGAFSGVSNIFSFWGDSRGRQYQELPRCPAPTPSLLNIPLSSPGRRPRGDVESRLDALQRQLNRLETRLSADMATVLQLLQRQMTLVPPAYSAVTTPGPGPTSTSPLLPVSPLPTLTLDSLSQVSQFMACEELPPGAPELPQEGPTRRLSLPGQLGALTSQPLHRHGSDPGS

[5] = Clearance in Sprague-Dawley rat at 10 mg/kg, po or 1 mg/kg, iv measured upto 8 hrs by LC-MS/MS analysis; type: ADME, organism-based; conditions: in vivo
[6] = Volume of distribution at steady state in Sprague-Dawley rat at 10 mg/kg, po or 1 mg/kg, iv measured upto 8 hrs by LC-MS/MS analysis; type: ADME, organism-based; conditions: in vivo, read-out: Vdss
[7] = Half-life in Sprague-Dawley rat at 10 mg/kg, po or 1 mg/kg, iv measured upto 8 hrs by LC-MS/MS analysis; type: ADME, organism-based; conditions: in vivo
[8] = Oral bioavailability in Sprague-Dawley rat at 10 mg/kg, administered via gavage measured upto 8 hrs by LC-MS/MS analysis; type: ADME, organism-based; conditions: in vivo
CAL-62 [9] = experiment: Antiproliferative activity against human CAL-62 cells at 20 uM assessed as reduction in cell proliferation; type: functional, cell-based
CAL-62 [10] = experiment: Antiproliferative activity against human CAL-62 cells at 10 uM assessed as reduction in cell proliferation; type: functional, cell-based
[11] = target: T2, Steroid hormone receptor ERR1 (Homo sapiens, UniProt P11474); experiment: Binding affinity to GST-tagged ERRalpha LBD (unknown origin) using fluorescein PGC1alpha as coactivator incubated for 1 hr by LanthaScreen TR-FRET co-regulator assay
T2 sequence (P11474 whole entry): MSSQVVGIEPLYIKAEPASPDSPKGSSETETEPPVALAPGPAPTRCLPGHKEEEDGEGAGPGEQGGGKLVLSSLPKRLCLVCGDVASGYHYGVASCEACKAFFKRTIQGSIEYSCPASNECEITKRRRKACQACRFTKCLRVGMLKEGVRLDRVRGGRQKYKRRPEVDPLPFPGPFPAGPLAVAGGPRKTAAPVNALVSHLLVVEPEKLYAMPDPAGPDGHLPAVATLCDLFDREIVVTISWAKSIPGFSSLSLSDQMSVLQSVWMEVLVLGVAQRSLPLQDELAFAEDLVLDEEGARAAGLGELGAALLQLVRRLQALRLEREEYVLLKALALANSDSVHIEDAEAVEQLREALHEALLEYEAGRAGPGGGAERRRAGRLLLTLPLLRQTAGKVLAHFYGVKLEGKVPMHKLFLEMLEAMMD

[12] = target: T3, Steroid hormone receptor ERR2 (Homo sapiens, UniProt O95718); experiment: Binding affinity to GST-tagged ERRbeta LBD (unknown origin) using fluorescein PGC1alpha as coactivator incubated for 1 hr by LanthaScreen TR-FRET co-regulator assay
T3 sequence (O95718 whole entry): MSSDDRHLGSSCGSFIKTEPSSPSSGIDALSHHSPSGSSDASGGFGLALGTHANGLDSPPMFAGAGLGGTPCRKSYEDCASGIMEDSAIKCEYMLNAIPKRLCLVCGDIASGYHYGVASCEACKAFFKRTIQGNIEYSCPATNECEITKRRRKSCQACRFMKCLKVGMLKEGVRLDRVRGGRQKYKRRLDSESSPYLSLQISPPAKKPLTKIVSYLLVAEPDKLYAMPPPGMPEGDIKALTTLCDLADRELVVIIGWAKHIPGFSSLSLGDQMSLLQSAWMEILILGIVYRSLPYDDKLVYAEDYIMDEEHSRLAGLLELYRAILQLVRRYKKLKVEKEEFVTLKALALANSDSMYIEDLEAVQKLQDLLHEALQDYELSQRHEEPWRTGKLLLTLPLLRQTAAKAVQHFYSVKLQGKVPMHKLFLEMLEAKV

Estrogen receptor = target: T4, Estrogen receptor (Homo sapiens, UniProt P03372); experiment: Binding affinity to GST-tagged ERalpha LBD (unknown origin) using fluorescein PGC1alpha as coactivator incubated for 1 hr by LanthaScreen TR-FRET co-regulator assay
T4 sequence (P03372 whole entry): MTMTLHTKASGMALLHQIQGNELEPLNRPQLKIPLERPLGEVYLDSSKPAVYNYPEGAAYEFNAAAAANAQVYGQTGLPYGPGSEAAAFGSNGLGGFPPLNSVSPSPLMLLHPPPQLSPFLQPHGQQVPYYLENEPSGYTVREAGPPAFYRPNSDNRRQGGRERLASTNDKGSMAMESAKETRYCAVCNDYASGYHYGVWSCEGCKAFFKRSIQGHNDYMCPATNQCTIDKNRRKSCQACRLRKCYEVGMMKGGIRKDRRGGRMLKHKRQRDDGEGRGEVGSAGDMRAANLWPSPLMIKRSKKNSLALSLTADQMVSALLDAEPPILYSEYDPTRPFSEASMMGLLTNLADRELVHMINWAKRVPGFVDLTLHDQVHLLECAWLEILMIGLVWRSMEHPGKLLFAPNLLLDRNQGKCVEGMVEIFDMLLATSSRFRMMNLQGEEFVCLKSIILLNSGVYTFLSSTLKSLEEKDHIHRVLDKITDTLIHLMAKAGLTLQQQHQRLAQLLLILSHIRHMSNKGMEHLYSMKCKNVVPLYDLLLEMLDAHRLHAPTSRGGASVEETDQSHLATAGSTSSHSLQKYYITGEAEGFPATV

hERG (KCNH2) = hERG (KCNH2) (Homo sapiens, UniProt Q12809); experiment: as §1; conditions: human
hERG (KCNH2), sequence (Q12809 whole entry): as the sequence (Q12809 whole entry) above

CAL-62 [13] = experiment: Anticlonogenic activity against human CAL-62 cells assessed as colony forming units level in absence of [131I] at 20 uM incubated for 24 hrs by crystal violet staining based assay; type: ADME, cell-based; conditions: cal-62, 24 h
CAL-62 [14] = experiment: Potentiation of radioiodine therapy-mediated cytotoxicity against human CAL-62 cells assessed as colony forming units level in presence of [131I] at 20 uM preincubated for 24 hrs followed by [131I] addition and measured after 6 hrs by crystal violet staining based assay (reference value: 97.5 +/- 2%); type: functional; conditions: time 30 hrs
[15] = target: T5, Estrogen-related receptor gamma (Homo sapiens, UniProt P62508)
T5 sequence (P62508 whole entry): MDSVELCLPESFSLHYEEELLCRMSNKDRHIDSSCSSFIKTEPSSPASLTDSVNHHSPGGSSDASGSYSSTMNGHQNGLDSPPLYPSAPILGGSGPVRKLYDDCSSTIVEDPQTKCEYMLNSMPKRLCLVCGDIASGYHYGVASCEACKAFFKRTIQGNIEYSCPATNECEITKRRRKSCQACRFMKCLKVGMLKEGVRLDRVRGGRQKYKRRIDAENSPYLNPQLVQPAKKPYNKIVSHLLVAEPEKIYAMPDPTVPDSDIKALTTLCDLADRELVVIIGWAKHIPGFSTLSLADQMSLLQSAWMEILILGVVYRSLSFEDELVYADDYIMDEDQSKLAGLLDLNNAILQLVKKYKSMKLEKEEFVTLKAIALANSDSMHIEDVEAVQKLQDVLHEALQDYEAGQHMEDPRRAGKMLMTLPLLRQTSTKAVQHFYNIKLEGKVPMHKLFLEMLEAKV

| SMILES | inhibition at 0.25 h, 10 µM (CYP1A2) [%] | inhibition at 0.25 h, 10 µM (CYP2C9) [%] | inhibition at 0.25 h, 10 µM (CYP2C19) [%] | inhibition at 0.25 h, 10 µM (CYP2D6) [%] | inhibition at 0.25 h, 10 µM (CYP3A4) [%] | remaining at 0.5 h, 1 µM [1] [%] | remaining at 0.5 h, 1 µM [2] [%] | Papp at 5 h, 10 µM [3] [×10⁻⁶ cm/s] | IC50 [4] [µM] | clearance [5] [mL/min/kg] | IC50 [11] [µM] | IC50 [12] [µM] | IC50 (Estrogen receptor) [µM] | IC50 [15] [µM] | other results |
| --- | --- | --- | --- | --- | --- | --- | --- | --- | --- | --- | --- | --- | --- | --- | --- |
| CN1CCC[C@H]1COc1ccc(/C(=C(/CCCO)c2ccccc2)c2ccc(Br)cc2)cc1.Cl | 9.6 | 37.3 | 30.5 | 35.6 | 55 | 61.2 | 66.2 | 0.93 | 4.7 | 74.4 |  |  |  |  | Vd [6]: 16.1 L/kg; half-life [7]: 3.4 h; bioavailability [8]: 38.2%; Activity (CAL-62 [9]): Active; Activity (CAL-62 [10]): inactive |
| CN(C)CCOc1ccc(/C(=C(/CCCO)c2ccccc2)c2ccc(O)cc2)cc1 | 16.4 | 27.1 | 21.8 | 17.7 | 17 |  |  | 0.23 |  | 45.6 |  |  |  |  |  |
| CN1CCC[C@@H]1COc1ccc(/C(=C(/CCCO)c2ccccc2)c2ccc(O)cc2)cc1.Cl | 1.9 | 13.3 | 17.4 | 6.4 | 20.6 | 29 | 27.7 | 0.7 |  |  | > 10 | > 10 | 3.76 |  | IC50 at 4 h (hERG (KCNH2)): > 30 µM |
| CN1CCC[C@H]1COc1ccc(/C(=C(/CCCO)c2ccccc2)c2ccc(O)cc2)cc1.Cl | 0 | 37.2 | 16.8 | 9.3 | 24.6 | 24.8 | 30.3 | 2.11 |  |  | > 10 | 3.99 | 1.06 |  | Activity (CAL-62 [13]): 93%; Activity (CAL-62 [14]): 67.4% |
| CN1CCCC1CCOc1ccc(/C(=C(/CCCO)c2ccccc2)c2ccc(O)cc2)cc1.Cl (stereo unspecified) | 2.1 | 24.6 | 18.2 | 18.3 | 16.3 | 37.3 | 22.5 | 0.01 |  |  | > 10 | 6.01 |  | 0.02 |  |
| CN1CCCC1CCOc1ccc(/C(=C(/CCCO)c2ccccc2)c2ccc(Br)cc2)cc1.Cl (stereo unspecified) | 0 | 3 | 10.6 | 0 | 9.8 | 67.3 | 59.9 | 0.21 | 1.7 |  | 5.14 | 8.88 | 2.97 | 0.296 |  |

Source: ChEMBL document CHEMBL4680094, “Insights of a Lead Optimization Study and Biological Evaluation of Novel 4-Hydroxytamoxifen Analogs as Estrogen-Related Receptor γ (ERRγ) Inverse Agonists” (J Med Chem, 2016)
